Patent US5132291A, “Antivirals and methods for increasing the antiviral activity of AZT” (priority 1989, dated 1992)
Where two headings read alike, the source gives them in different places.

Experiments:
[1] = Lymphoblast assay, effects on cell growth, CEM T-cell line; format: cell-based; conditions: human, cem cells, AICA riboside alone, read-out: reduction in T-cell growth
Description: (§1) Several lymphoblast lines were utilized in conjunction with varying doses of antiviral agents to determine their effects on cell growth. In this method a daily cell count over a period of time, post-addition of antiviral compounds, can be compared with the normal cell growth curve.
(§2) Two representative T-cell lines, SupT-1 and CEM, and a B-cell line, WI-L2, were grown to mid-log phase 5×10^5 cells/ml in 50 ml of RPMI 1640 (Irvine Scientific) supplemented with 10% heat-inactivated fetal calf serum (Gemini-Bioproducts) and 1% glutamine (Gibco) to standardize seeding conditions and to assure a population of logarithmically growing cells.
(§3) An appropriate number cf T-25 flasks (Corning) were seeded with evenly suspended cells at 0.5×10^5 cells/ml in 20 ml of fresh growth media. Including a control condition, each set of flasks was treated with a dose range of antiviral compound for each cell line. Each dose condition was repeated in triplicate. All flasks were incubated for 5 days at 37° C. in a 5% CO2 incubator.
(§4) Every 24 hours for 5 days, three 0.2 ml samples of each flask were diluted in 9.8 ml of isoton (Fisher Scientific) and counted on a cell counter (Coulter Co.). The average of each flask was recorded, and the average of each triplicate antiviral does was then averaged and recorded.

WI-L2 cells = assay: Lymphoblast assay, effects on cell growth, WI-L2 B-cell line; format: cell-based; conditions: AICA riboside alone, up to 500 μM
Description: as §1, §2, §3, §4

HIV-1 = assay: HIV syncitial forming assay using CEM-SS cells; format: cell-based
From the text: The following cytomorphologic infectivity bioassay was used to characterize antiviral activity against HIV-1. In the following assay a single infectious unit of virus infects a single cell and initiates a focal expression of that infection, i.e., a syncitium. Since a single infectious unit leads to a discrete response, a linear relationship exists between the number of virally-induced cytopathic effects and the first order of virus concentration. Application of this procedure in assays for virus inactivation allows for evaluation of the candidate antiviral agent.
CEM-SS (syncitium-sensitive Leu 3a-positive CEM cell line) cells were grown in RPMI 1640 cell culture media (Irvine Scientific) supplemented with 10% heat-inactivated fetal bovine serum (Gemini Bioproducts) and 1% […] glutamine (Gibco). Log-phase cells were split 1:2 with the growth medium the day prior to setting up the assay to standardize plating conditions and to assure a population of logarithmically growing cells. Ninety-six-well plates (Costar) were pretreated with 50 μl of 50 μg/ml poly-1-lysine (MW=295,000 Sigma) "PLL") and were left at room temperature for 60 minutes. Residual PLL was removed with two washes of PBS. The plates were stored in the incubator until used.
On the day of the assay, the cells were counted and enough cells were harvested to plate each well with 5.0×10^4 cells per well in a volume of 200 μl (or 20 ml of […] was appropriate for each 96-well microtitre plate).
The cells were plated out on the PLL pre-treated microtitre plates at 5.0×10^4 cells/well in a volume of 200 μl. After allowing attachment for 30 minutes at 37° C. and 5% CO2, the antiviral agent(s) were added in the noted amounts and the treated plates were pre-incubated for 24 hours.
The HIV-1 virus stock (isolated from infected H-9 cells) was diluted in growth medium to yield 100 SFU (syncytial-forming units) per well. Diluted HIV-1 virus, 20 μl, was added to appropriate wells. All the plates were then incubated for 5 days at 37° C. and 5% CO2. On day 5 post-infection, the cells were given a 100 μl media change. […]

HIV = HIV syncitial forming assay using SupT-1 cells; format: cell-based; conditions: AICA riboside 5 μM-500 μM
Description: The assay was performed following the procedure described in Example Three except that SupT-1 cells were used. Using the SupT-1 cells, the medium was not changed at day 5 post-infection and the syncitia were counted at day 5 post-infection at 40X. The results are plotted in FIGS. 5, 6(b), and 7.

SAH hydrolase = SAH hydrolase inhibition; format: biochemical
Description: The effect of incubation time and AICA riboside concentration on SAH hydrolase activity was determined as follows. Five samples of SAH hydrolase were incubated at the following AICA riboside concentrations: 0, 10, 25, 50 and 100 μM. The incubation buffer consisted of 25 mM potassium phosphate pH 7.0, 1 mM EDTA, 1 mM, DTT and 0.04% BSA. The total enzyme added to incubation mixture was 10 μg. At indicated times, 10 μl of sample was withdrawn and assayed in the following assay system: 25 mM potassium phosphate, pH 7.0, 40 mM DL-Homocysteine, 1 mM EDTA, 1 mM DTT, 10 μM EHNA, 0.1% BSA and 10 μM U-^14 C Adenosine (590 m Ci/mmole). The reaction was stopped by adding 15 μl of 30% TCA. The samples were then centrifuged and 15 μl were removed and applied to Kodak cellulose 13254 TLC plates along with SAH and adenosine markers. The plates were then developed in a solvent system of 1-butanol:methanol:H2 O:ammonium hydroxide (60:20:20:2). The adenosine and S-adenosyl homocysteine were visualized under UV light and the spots were cut from the plate. Radioactivity of the spots was determined by liquid scintillation spectrometry. From a plot of the reciprocal of Kinactivation vs. 1/AICA riboside concentration the values of Ki (X-intercept) and Kmax (Y-intercept), were determined (FIG. 10(b)).

[2] = test system: Chinese hamster lung fibroblasts; conditions: cited from earlier work

## NC(=O)c1ncn([C@@H]2O[C@H](CO)[C@@H](O)[C@H]2O)c1N [AICA riboside, 5-amino-1-β-D-ribofuranosyl-imidazole-4-carboxamide]
[1]
  inhibition at 500 µM: 30 to 50%
WI-L2 cells
  effect on WI-L2 (B-cell) growth: no effect
HIV-1; AICA riboside 5 μM and 50 μM, 24 hour preincubation before HIV infection
  antiviral effect (number of syncitia): antiviral effect
HIV-1; CEM cells, HIV
  antiviral effect with preincubation versus addition at the time of infection: more effective as an antiviral with preincubation
HIV
  effectiveness against the AIDS virus (prevention of syncitial formation): less than 100%
SAH hydrolase
  inhibition of SAH hydrolase: very potent inhibitors
SAH hydrolase; even at a concentration as low as 10 μM
  inhibition of SAH hydrolase: potent inhibitors
[2]; 50 μM and 200 μM
  expansion of the purine pool (ATP and GTP): about 40%
[2]; 50 μM and 200 μM, reversible by uridine
  growth rate: reduced growth rate
[2]; 50 μM
  drop in PRPP availability, measured by adenine incorporation: 18%
[2]; 200 μM
  drop in PRPP availability, measured by adenine incorporation: 82%
[2]; 200 μM, reversed by uridine
  effect on cell growth: arrested cell growth
[2]; 700 μM
  cytotoxicity: no cytotoxicty
[2]
  UTP and CTP pools: decreased by a factor of approximately ten
